≈ marks a conversion by molar mass, not a printed value.
Legend:
HCT-116 = assay: Cytotoxicity against human HCT116 cells; assay type: cell-based
Staphylococcus aureus = assay: Antimicrobial activity against methicillin-resistant Staphylococcus aureus; assay type: functional

CCCCCC[C@H](C)[C@H]1OC(=O)[C@H](C)NC(=O)[C@H](C)NC(=O)[C@H](CC(C)C)NC(=O)[C@H](C(C)C)NC(=O)CNC(=O)[C@@H]1C [EMERICELLAMIDE A]
IC50 (HCT-116): 23 µM
MIC (Staphylococcus aureus): 3.8 µM (≈ 2.32 µg/mL)

CCCCCC[C@H](C)C[C@H](C)[C@H]1OC(=O)[C@H](C)NC(=O)[C@H](C)NC(=O)[C@H](CC(C)C)NC(=O)[C@H](C(C)C)NC(=O)CNC(=O)[C@@H]1C [EMERICELLAMIDE B]
IC50 (HCT-116): 40 µM
MIC (Staphylococcus aureus): 6 µM (≈ 3.91 µg/mL)

Reference: ChEMBL document CHEMBL1142111, “Induced production of emericellamides A and B from the marine-derived fungus Emericella sp. in competing co-culture” (J Nat Prod, 2007)
